Data taken from patent US8759340B2, “Benzodiazepinone compounds useful in the treatment of skin conditions” (The Regents of the University of Michigan, priority 2007, dated 2014).

Assays:
Type in all cases: cell-based
[1] = tested on: human keratinocytes (KC); assay: Keratinocyte proliferation assay; conditions: KC, day 2; for inhibition at 0.05 µM / inhibition at 0.1 µM / inhibition at 0.5 µM / inhibition at 1 µM / inhibition at 5 µM / inhibition at 10 µM: Homo sapiens, Keratinocyte, 48 h, read-out: Percent Inhibition of Cells Per Concentration of Test Compound
Procedure: Epidermal keratinocytes were isolated from fresh tissue biopsies as described previously (Varani et al., (1994) J. Clin. Invest. 94:1747-1753). Primary and early passage cells were maintained in Keratinocyte Growth Medium (KGM) (Lonza). KGM contains the same basal medium as KBM but is further supplemented with a mixture of growth factors including 0.1 ng per mL EGF, 0.5 μg per mL insulin, and 0.4% bovine pituitary extract. In addition to using low-passage keratinocytes, we also used the HaCat line of immortalized human epidermal keratinocytes in some experiments. The immortalized keratinocytes were handled exactly as low-passage keratinocytes.
(§1) Keratinocyte proliferation was assessed by seeding 4×10^4 cells per well in a 24-well plate using KGM as culture medium. After the cells had attached (overnight), they were washed and triplicate samples were harvested for zero-time counts. DMSO served as a negative control. Proliferation was measured on day 2 by releasing the cells with trypsin/EDTA and enumerating them using a particle counter (Coulter Electronics, Hialeah, Fla.). Fibroblast proliferation studies were conducted in a similar manner except that […] was used as culture medium.
(§2) KC refers to human keratinocytes. HFF refers to human foreskin fibroblasts. The cLogP values were calculated using ChemDraw™ (CambridgeSoft).

[2] = tested on: human foreskin fibroblasts (HFF); assay: Fibroblast proliferation assay; conditions: HFF, day 2; for inhibition at 1 µM / inhibition at 0.05 µM / inhibition at 0.1 µM / inhibition at 0.5 µM / inhibition at 5 µM / inhibition at 10 µM: Homo sapiens, 48 h, read-out: Percent Inhibition of Cells Per Concentration of Test Compound; for inhibition at 0.05 µM / inhibition at 0.1 µM / inhibition at 0.5 µM / inhibition at 5 µM / inhibition at 10 µM: Fibroblast
Procedure: Fibroblasts obtained from the same tissue were grown in monolayer culture using Dulbecco's modified minimal essential medium supplemented with nonessential amino acids and 10% fetal bovine serum (DMEM-FBS) as culture medium. Both keratinocytes and fibroblasts were maintained at 37° C. in an atmosphere of 95% air and 5% CO2. Cells were subcultured by exposure to trypsin/ethylenediamine tetraacetic acid (EDTA) and used at passage 2-4.
as §1, §2

[3] = tested on: RA-induced epidermal hyperplasia; assay: Inhibition of RA-induced epidermal hyperplasia in human skin organ cultures; conditions: exposed to RA alone; 70-90 μm in the absence of RA
Source text: Replicate 6-mm punch biopsies of full-thickness psoriatic plaque skin were obtained from human skin donors with psoriasis. These biopsies were used in the transplant studies. Six-mm punch biopsies of sun-protected (hip) skin from non-psoriatic donors were obtained as controls. In addition, replicate 2-mm full-thickness punch biopsies of sun-protected hip skin were obtained from normal donors for use in organ culture studies.
Immediately upon biopsy, the replicate 2-mm punch biopsies (non-psoriatic skin only) were immersed in culture medium consisting of Keratinocyte Basal Medium (KBM) (Lonza, Walkersville, Md.). KBM is a low-Ca^2+, serum-free modification of MCDB-153 medium. It was supplemented with CaCl2 to bring the final Ca^2+ concentration to 1.4 mM. Biopsies were incubated in wells of a 24-well dish containing 400 μl of Ca^2+-supplemented KBM with or without additional treatments (RA and/or Compound H). Cultures were incubated at 37° C. in an atmosphere of 95% air and 5% CO2. Other than to maintain the tissue in a minimal volume of medium, nothing further was done to ensure a strict air-liquid interface. Incubation was for 8 days, with change of medium and fresh treatments provided every second day. At the end of the incubation period, tissue was fixed in 10% buffered formalin and examined histologically after staining with hematoxylin and eosin. Routinely, 3-6 tissue sections were prepared from each block. Epidermal thickness measurements were made at several sites in each tissue section (distance from the dermal-epidermal juncture to the top of the viable portion of the epithelium). The organ culture procedure employed here has been described in the past (Varani et al. (1993) Amer. J. Pathol. 142:189-198; and Varani et al., (1994) J. Clin. Invest. 94:1747-1753). In order to evaluate the toxicity of compound H, tissue was examined histologically and necrosis was assessed on a 0 to 4+ scale, with 0 indicating no change from control and 4+ indicating complete necrosis of the epidermis (n=6). Scores ≦1 were taken as normal.
The average epidermal thickness in the absence of RA was 70-90 μm, while the average epidermal thickness was 275 μm in cells exposed to RA.

| Structure (SMILES) | inhibition at 0.05 µM ([1]; 0.05 μM) [%] | inhibition at 0.1 µM ([1]; 0.1 μM) [%] | inhibition at 0.5 µM ([1]; 0.5 μM) [%] | inhibition at 1 µM ([1]; 1 μM) [%] | inhibition at 5 µM ([1]; 5 μM) [%] | inhibition at 10 µM ([1]; 10 μM) [%] | inhibition at 1 µM ([2]; 1 μM) [%] | inhibition at 0.05 µM ([2]; 0.05 μM) [%] | inhibition at 0.1 µM ([2]; 0.1 μM) [%] | inhibition at 0.5 µM ([2]; 0.5 μM) [%] | inhibition at 5 µM ([2]; 5 μM) [%] | inhibition at 10 µM ([2]; 10 μM) [%] | other results |
| --- | --- | --- | --- | --- | --- | --- | --- | --- | --- | --- | --- | --- | --- |
| CC(C)c1ccc(C(C)C)c(CC2N=C(c3ccc(O)cc3)c3cc(Cl)ccc3N(C)C2=O)c1 (stereo not shown) [Compound 10, (Z)-3-(2,5-Diisopropylbenzyl)-7-chloro-5-(4-hydroxyphenyl)-1-methyl-1H-benzo[e][1,4]diazepin-2(3H)-one] | < 20 | < 20 | < 20 | ≥ 20 | ≥ 90 | ≥ 90 | < 20 | < 20 | < 20 | < 20 | ≥ 90 | ≥ 90 | – |
| CCc1cccc(CC)c1CC1N=C(c2ccc(O)cc2)c2cc(Cl)ccc2NC1=O (stereo not shown) [Compound 3, (Z)-3-(2,6-Diethylbenzyl)-7-chloro-5-(4-hydroxyphenyl)-1H-benzo[e][1,4]diazepin-2(3H)-one] | < 20 | < 20 | < 20 | ≥ 20 | ≥ 90 | ≥ 90 | < 20 | < 20 | < 20 | < 20 | ≥ 90 | ≥ 90 | – |
| Cc1cc(C)cc(CC2N=C(c3ccc(O)cc3)c3cc(Cl)ccc3N(C)C2=O)c1 (stereo not shown) [Compound 2, (Z)-3-(3,5-Dimethylbenzyl)-7-chloro-5-(4-hydroxyphenyl)-1-methyl-1H-benzo[e][1,4]diazepin-2(3H)-one] | < 20 | < 20 | ≥ 20 | ≥ 20 | ≥ 90 | ≥ 90 | < 20 | < 20 | < 20 | < 20 | ≥ 90 | ≥ 90 | – |
| CC1=C(/C=C/C(C)=C/C=C/C(C)=C/C(=O)O)C(C)(C)CCC1 [RA, all-trans retinoic acid, reference compound] | – | – | – | – | – | – | – | – | – | – | – | – | average epidermal thickness [3]: 275 μm |
| CC(C)c1ccc(C(C)C)c(CC2N=C(c3ccc(O)cc3)c3cc(Cl)ccc3NC2=O)c1 (stereo not shown) [Compound 9, (Z)-3-(2,5-Diisopropylbenzyl)-7-chloro-5-(4-hydroxyphenyl)-1H-benzo[e][1,4]diazepin-2(3H)-one] | < 20 | < 20 | ≥ 20 | ≥ 20 | ≥ 90 | ≥ 90 | < 20 | < 20 | < 20 | < 20 | ≥ 90 | ≥ 90 | – |
| CC(C)c1ccc(CC2N=C(c3ccc(O)cc3)c3cc(Cl)ccc3N(C)C2=O)cc1 (stereo not shown) [Compound 8, (Z)-3-(4-Isopropylbenzyl)-7-chloro-5-(4-hydroxyphenyl)-1-methyl-1H-benzo[e][1,4]diazepin-2(3H)-one] | < 20 | < 20 | ≥ 20 | ≥ 20 | ≥ 90 | ≥ 90 | < 20 | < 20 | < 20 | < 20 | ≥ 90 | ≥ 90 | – |
| CCc1cc(CC)cc(CC2N=C(c3ccc(O)cc3)c3cc(Cl)ccc3N(C)C2=O)c1 (stereo not shown) [Compound 6, (Z)-3-(3,5-Diethylbenzyl)-7-chloro-5-(4-hydroxyphenyl)-1-methyl-1H-benzo[e][1,4]diazepin-2(3H)-one] | < 20 | < 20 | < 20 | < 20 | ≥ 90 | ≥ 90 | < 20 | < 20 | < 20 | < 20 | ≥ 90 | ≥ 90 | – |
| CCc1ccc(CC2N=C(c3ccc(O)cc3)c3cc(Cl)ccc3N(C)C2=O)cc1CC (stereo not shown) [Compound 4, (Z)-3-(3,4-Diethylbenzyl)-7-chloro-5-(4-hydroxyphenyl)-1-methyl-11H-benzo[e][1,4]diazepin-2(3H)-one] | – | – | – | – | – | – | – | – | – | – | – | – | Percent Inhibition of Cells Per Concentration of Test Compound ([1]; 0.05 μM): <20%; Percent Inhibition of Cells Per Concentration of Test Compound ([1]; 0.1 μM): <20%; Percent Inhibition of Cells Per Concentration of Test Compound ([1]; 0.5 μM): <20%; Percent Inhibition of Cells Per Concentration of Test Compound ([1]; 1 μM): ≧20%; Percent Inhibition of Cells Per Concentration of Test Compound ([1]; 5 μM): ≧90%; Percent Inhibition of Cells Per Concentration of Test Compound ([1]; 10 μM): ≧90%; Percent Inhibition of Cells Per Concentration of Test Compound ([2]; 0.05 μM): <20%; Percent Inhibition of Cells Per Concentration of Test Compound ([2]; 0.1 μM): <20%; Percent Inhibition of Cells Per Concentration of Test Compound ([2]; 0.5 μM): <20%; Percent Inhibition of Cells Per Concentration of Test Compound ([2]; 1 μM): <20%; Percent Inhibition of Cells Per Concentration of Test Compound ([2]; 5 μM): ≧90%; Percent Inhibition of Cells Per Concentration of Test Compound ([2]; 10 μM): ≧90% |
| CCc1cc(CC)cc(CC2N=C(c3ccc(O)cc3)c3cc(Cl)ccc3NC2=O)c1 (stereo not shown) [Compound 5, (Z)-3-(3,5-Diethylbenzyl)-7-chloro-5-(4-hydroxyphenyl)-1H-benzo[e][1,4]diazepin-2(3H)-one] | < 20 | < 20 | ≥ 20 | ≥ 20 | ≥ 90 | ≥ 90 | < 20 | < 20 | < 20 | < 20 | ≥ 90 | ≥ 90 | – |
| CC(C)c1ccc(CC2N=C(c3ccc(O)cc3)c3cc(Cl)ccc3NC2=O)cc1 (stereo not shown) [Compound 7, (Z)-3-(4-Isopropylbenzyl)-7-chloro-5-(4-hydroxyphenyl)-1H-benzo[e][1,4]diazepin-2(3H)-one] | < 20 | < 20 | < 20 | ≥ 20 | ≥ 90 | ≥ 90 | ≥ 20 | < 20 | < 20 | < 20 | ≥ 90 | ≥ 90 | – |
